# Experimental data reported in patent publication US6825340B2, “Methods and reagents for inactivating ribonucleases” (Ambion, Inc., priority 1998, dated 2004).
# What was measured:
# [1] = test system: RNase mixture (RNase A, RNase 1, RNase T1); experiment: Non-isotopic RNase inactivation assay (mouse total RNA, agarose gel); format: biochemical, human, E. coli and a fungus; parameters: key to RNase Inactivation Water / RNase Inactivation Buffer A / RNase Inactivation Buffer B / RNase Inactivation Buffer C: (+) indicates that the RNase mixture was inactivated; (−) indicates that the RNase mixture was not activated as determined by the non-isotopic assay; conditions: for RNase Inactivation Buffer B: 50 mM Tris-HCl (pH 7.0); for RNase Inactivation Buffer C: 30 mM NaCl, 3 mM sodium citrate (pH 7.5)
# From the text: The inventors routinely perform assays on RNA designed to assess RNase activity in a sample. Two different assays are typically used for the detection of ribonuclease activity, non-isotopic and isotopic. […] In both assays, the inactivation process is typically performed on a mixture of three different ribonucleases: RNase A, RNase 1, and RNase T1. Each ribonuclease is purified from a different species: […], E. coli and a fungus, respectively. The three RNases are very different from each other in their origin, substrate specificity and protein sequence. In this way, the inactivation process can test three completely different but well characterized ribonucleases. The standard stock RNase mixture employed in the following examples is prepared by combining 1 μl RNase 1 (100 U/μl; Ambion), 1 μl RNase cocktail (RNase A, 0.5 U/μl; RNase T1, 20 U/μl, Ambion) and 98 μl water. The non-isotopic assay uses total RNA isolated from mouse as the substrate for the RNase mixture. […] A quantity of 4 μg of total RNA isolated from mouse liver or brain was dissolved in an aqueous solution, usually water or 1 mM sodium citrate (pH 6.6). The treated ribonuclease sample was added to the total RNA and then incubated at 37° C. for 1 or 16 hours, depending on the sensitivity desired for the assay. After incubation, the RNA was fractionated in a formaldehyde 1% agarose gel. The RNA was detected by staining with ethidium bromide and then illuminating the gel with ultraviolet light. The RNA fluoresces in the gel. Untreated total RNA was also fractionated as a control with the test samples for comparative purposes. […] Intact total RNA has two major bands produced by the 28S and 18S ribosomal RNA. […] The RNase cocktail was made to various concentrations in different buffers in different DTT concentrations and incubated at 37° C. or 60° C. for 20 minutes. Total mouse RNA was added to the treated RNase mixture and incubated at 37° C. for one hour, fractionated in a formaldehyde denaturing 1% agarose gel and the RNA visualized by ethidium bromide staining and UV fluorescence.
# [2] = test system: unknown RNase in psoralen biotin; experiment: Integrity of psoralen biotin labeled Millennium Markers after 37° C., 16 hours; format: biochemical; conditions: 5 mM DTT; 90° C. for 10 minutes; then 37° C. for 16 hours
# Protocol: The Millennium™ Markers (Ambion, Inc.) are a set of RNA size markers from 0.5 to 9 kb in length. They are used for determining the length of an unknown RNA. These markers were being labeled with biotin using a psoralen biotin labeling procedure so that they could be detected non-isotopically on a nylon membrane. However, if the Millennium™Markers were incubated at 37° C. for 16 hours after labeling with the psoralen biotin, they were degraded.
# [3] = RNase Mix 64 ng/ml, DTT 5 mM, 60° C. for 20 minutes
# [4] = RNase Mix 64 ng/ml, DTT 10 mM, 37° C. for 20 minutes
# [5] = RNase Mix 64 ng/ml, DTT 10 mM, 60° C. for 20 minutes
# [6] = RNase Mix 95 ng/ml, DTT 5 mM, 60° C. for 20 minutes
# [7] = RNase Mix 95 ng/ml, DTT 10 mM, 37° C. for 20 minutes
# [8] = RNase Mix 95 ng/ml, DTT 10 mM, 60° C. for 20 minutes
# [9] = RNase Mix 191 ng/ml, DTT 5 mM, 60° C. for 20 minutes
# [10] = RNase Mix 191 ng/ml, DTT 10 mM, 37° C. for 20 minutes
# [11] = RNase Mix 191 ng/ml, DTT 10 mM, 60° C. for 20 minutes
# [12] = RNase Mix 191 ng/ml, DTT 20 mM, 60° C. for 20 minutes
# [13] = RNase Mix 954 ng/ml, DTT 5 mM, 60° C. for 20 minutes
# [14] = RNase Mix 954 ng/ml, DTT 10 mM, 37° C. for 20 minutes
# [15] = RNase Mix 954 ng/ml, DTT 10 mM, 60° C. for 20 minutes
# [16] = RNase Mix 954 ng/ml, DTT 20 mM, 60° C. for 20 minutes
smiles,measurement,setting,value
"O[C@H](CS)[C@H](O)CS [DTT, dithiothreitol]",concentration of RNase mixture completely inactivated,"[1]; 20 mM DTT, 1 mM sodium citrate (pH 6.4), 60° C. for 20 minutes, non-isotopic assay, 1 hour incubation",up to 200 ng/ml
same,inactivation of sequentially added RNases,"[1]; 20 mM DTT, 1 mM sodium citrate (pH 6.4), RNases 200 ng/ml per addition, heating at 60° C. for 20 minutes after each addition",completely inactivated
same,concentration of RNase mixture completely inactivated in the presence of RNA,"[1]; 20 mM DTT, mouse liver total RNA 4 μg/10 μl, 1 mM sodium citrate (pH 6.4), 60° C. for 20 minutes",up to 3.125 ng/ml
same,effect of sequentially added RNases without reheating,"[1]; 20 mM DTT, same buffer, not subjected to the 60° C. incubation",complete RNA degradation
same,60° C. incubation time required for inactivation,"[1]; RNase 200 ng/ml, 20 mM DTT, 60° C.",at least 4 minutes
same,RNase Inactivation Buffer A,"[1]; RNase Mix 64 ng/ml, DTT 5 mM, 60° C. for 20 minutes, 1 mM sodium citrate (pH 6.4)",+
same,RNase Inactivation Buffer B,[1]; [3],+
same,RNase Inactivation Buffer C,[1]; [3],+
same,RNase Inactivation Water,[1]; [3],+
same,RNase Inactivation Buffer A,"[1]; RNase Mix 64 ng/ml, DTT 10 mM, 37° C. for 20 minutes, 1 mM sodium citrate (pH 6.4)",+
same,RNase Inactivation Buffer B,[1]; [4],+
same,RNase Inactivation Buffer C,[1]; [4],+
same,RNase Inactivation Water,[1]; [4],+
same,RNase Inactivation Buffer A,"[1]; RNase Mix 64 ng/ml, DTT 10 mM, 60° C. for 20 minutes, 1 mM sodium citrate (pH 6.4)",+
same,RNase Inactivation Buffer B,[1]; [5],+
same,RNase Inactivation Buffer C,[1]; [5],+
same,RNase Inactivation Water,[1]; [5],+
same,RNase Inactivation Buffer A,"[1]; RNase Mix 95 ng/ml, DTT 5 mM, 60° C. for 20 minutes, 1 mM sodium citrate (pH 6.4)",−
same,RNase Inactivation Buffer B,[1]; [6],−
same,RNase Inactivation Buffer C,[1]; [6],−
same,RNase Inactivation Water,[1]; [6],−
same,RNase Inactivation Buffer A,"[1]; RNase Mix 95 ng/ml, DTT 10 mM, 37° C. for 20 minutes, 1 mM sodium citrate (pH 6.4)",−
same,RNase Inactivation Buffer B,[1]; [7],−
same,RNase Inactivation Buffer C,[1]; [7],−
same,RNase Inactivation Water,[1]; [7],−
same,RNase Inactivation Buffer A,"[1]; RNase Mix 95 ng/ml, DTT 10 mM, 60° C. for 20 minutes, 1 mM sodium citrate (pH 6.4)",+
same,RNase Inactivation Buffer B,[1]; [8],+
same,RNase Inactivation Buffer C,[1]; [8],+
same,RNase Inactivation Water,[1]; [8],+
same,RNase Inactivation Buffer A,"[1]; RNase Mix 191 ng/ml, DTT 5 mM, 60° C. for 20 minutes, 1 mM sodium citrate (pH 6.4)",−
same,RNase Inactivation Buffer B,[1]; [9],−
same,RNase Inactivation Buffer C,[1]; [9],−
same,RNase Inactivation Water,[1]; [9],−
same,RNase Inactivation Buffer A,"[1]; RNase Mix 191 ng/ml, DTT 10 mM, 37° C. for 20 minutes, 1 mM sodium citrate (pH 6.4)",−
same,RNase Inactivation Buffer B,[1]; [10],−
same,RNase Inactivation Buffer C,[1]; [10],−
same,RNase Inactivation Water,[1]; [10],−
same,RNase Inactivation Buffer A,"[1]; RNase Mix 191 ng/ml, DTT 10 mM, 60° C. for 20 minutes, 1 mM sodium citrate (pH 6.4)",+
same,RNase Inactivation Buffer B,[1]; [11],+
same,RNase Inactivation Buffer C,[1]; [11],+
same,RNase Inactivation Water,[1]; [11],+
same,RNase Inactivation Buffer A,"[1]; RNase Mix 191 ng/ml, DTT 20 mM, 60° C. for 20 minutes, 1 mM sodium citrate (pH 6.4)",+
same,RNase Inactivation Buffer B,[1]; [12],+
same,RNase Inactivation Buffer C,[1]; [12],+
same,RNase Inactivation Water,[1]; [12],+
same,RNase Inactivation Buffer A,"[1]; RNase Mix 954 ng/ml, DTT 5 mM, 60° C. for 20 minutes, 1 mM sodium citrate (pH 6.4)",−
same,RNase Inactivation Buffer B,[1]; [13],−
same,RNase Inactivation Buffer C,[1]; [13],−
same,RNase Inactivation Water,[1]; [13],−
same,RNase Inactivation Buffer A,"[1]; RNase Mix 954 ng/ml, DTT 10 mM, 37° C. for 20 minutes, 1 mM sodium citrate (pH 6.4)",−
same,RNase Inactivation Buffer B,[1]; [14],−
same,RNase Inactivation Buffer C,[1]; [14],−
same,RNase Inactivation Water,[1]; [14],−
same,RNase Inactivation Buffer A,"[1]; RNase Mix 954 ng/ml, DTT 10 mM, 60° C. for 20 minutes, 1 mM sodium citrate (pH 6.4)",−
same,RNase Inactivation Buffer B,[1]; [15],−
same,RNase Inactivation Buffer C,[1]; [15],−
same,RNase Inactivation Water,[1]; [15],−
same,RNase Inactivation Buffer A,"[1]; RNase Mix 954 ng/ml, DTT 20 mM, 60° C. for 20 minutes, 1 mM sodium citrate (pH 6.4)",+
same,RNase Inactivation Buffer B,[1]; [16],+
same,RNase Inactivation Buffer C,[1]; [16],+
same,RNase Inactivation Water,[1]; [16],+
same,RNase mixture inactivation,"[1]; RNase mixture 64 ng/ml, 10 mM DTT, 37° C. for 20 minutes",inactivated
same,RNase activity inactivated,"[1]; RNase mixture 200 ng/ml, 20 mM DTT, 60° C. for 1 minute",approximately 50%
same,RNase activity inactivated,"[1]; RNase mixture 200 ng/ml, 20 mM DTT, 60° C. for 2 minutes",~80%
same,RNase activity inactivated,"[1]; RNase mixture 200 ng/ml, 20 mM DTT, 60° C. for 4 minutes",~100%
same,RNase inactivation in different buffers and solutions,"[1]; RNase mixture 200 ng/ml, 20 mM DTT, 60° C. for 20 minutes, 17 solutions, non-isotopic",inactivated RNase activity in all of buffers and solutions tested
same,RNase mixture inactivation,"[1]; RNase mixture 200 ng/ml, 20 mM DTT, 60° C. for less than 30 seconds",did not inactivate
same,RNase mixture inactivation,"[1]; RNase mixture 954 ng/ml, 20 mM DTT, 60° C. for 20 minutes",inactivated
same,RNase activity on retest after storage,[1]; solutions with inactivated RNases stored at 4° C. for one month,none of the solutions had detectable RNase activity
same,integrity of psoralen biotin labeled Millennium Markers,[2],remained intact
